# In US20070135514A1, “Methods for the identification of agents for the treatment of seizures, neurological diseases, endocrinopathies and hormonal diseases” (priority 2002, published 2007):
# Where two headings read alike, the source gives them in different places.
# Experiments:
# [1] = biological target: T1, levetiracetam binding site (LBS) (Rattus norvegicus, UniProt Q02563); conditions: cited from earlier work
# T1 construct: host or cells: crude rat brain membranes (Noyer et al. 1995; Gillard et al. 2003)
# hSV2A = biological target: T2, hSV2A (Homo sapiens, UniProt Q7L0J3); assay: [3H]ucb 30889 binding to hSV2A expressed in COS-7 cells; conditions: for competition with [3H]ucb 30889 for binding to SV2A: concentrations up to 100 μM
# T2 construct: expressed in transfected cells; host or cells: COS-7 cells, transient transfection (pDEST 12.2 Gateway vector, CMV promoter)
# audiogenic seizures = conditions: in vivo; cited from earlier work
# [2] = system: refractory partial seizures; conditions: adjunctive therapy; cited from earlier work
# [3] = biological target: T1, levetiracetam binding site (LBS); assay: [3H]ucb 30889 binding to crude rat brain membranes (kinetic, saturation, competition)
# Protocol: (§1) Binding experiments were conducted on crude rat brain membranes at 4° C. as described in Noyer et al. (Euro. J. Pharmacol. 286:137-146 (1995)). Incubation time for equilibrium studies was 120 min. For kinetic and competition studies, [^3H]ucb 30889 (30 Ci/mmol) was used at a concentration of 1.3 nM in 0.5 ml of a Tris-HCl (pH 7.4) buffer containing 2 mM Mg^2+. Localization of the LBS in brain substructures was assessed by autoradiography on 25 μm thick slices incubated under similar conditions. Slides were then washed twice for 10 min at 4° C. in 50 mM Tris-HCl (pH 7.4) containing 0.5% BSA, dried and exposed for 3 weeks to [^3H]Hyperfilm at −20° C. Non-specific binding (NSB) was determined by the inclusion of 1 mM LEV during the incubation period.
# [4] = system: LBS in peripheral tissues; assay: [3H]ucb 30889 specific binding in peripheral tissues; conditions: 150 μg protein/assay, 1.3 nM radioligand; detection limit Bmax 200 fmol/mg protein
# Protocol: as §1
# The limit of detection under the experimental conditions (150 μg of protein/assay and 1.3 nM of radioligand) was a Bmax of 200 fmol/mg protein.
# [5] = system: Rat cerebellar granule neurons; assay: [3H]ucb 30889 binding in rat cerebellar granule neurons
# Protocol: (§2) To identify and characterize the LBS in situ, [^3H]ucb 30889 was used to map the LBS within the brain and to study both its cellular and subcellular distribution. For rat brain autoradiography, 25 μm slices were incubated with 1.3 nM [^3H]ucb 30889 for 120 min at 4° C. in 50 mM Tris-HCl buffer (pH 7.4). Binding assays with rat brain membranes and various neuronal cell lines were performed under similar conditions. […] For photolabeling, membranes were incubated with 40 nM [^3H]ucb 30889 for 120 min at 4° C. in the same buffer, followed by irradiation with UV-light for 30 min (Fuks et al., Eur. J. Pharmacol. 478:11-19 (2003)).
# Mouse cortical neurons = assay: [3H]ucb 30889 binding in mouse cortical neurons
# Protocol: as §2
# PC12 = assay: [3H]ucb 30889 binding in PC12 cells; set-up: species or system rat
# Protocol: as §2
# COS-7 = assay: [3H]ucb 30889 binding in untransfected COS-7 cells; conditions: untransfected COS-7 cell line
# Protocol: as §2
# In addition, a PC12 cell line subclone, PC12a, which is low in LBS, was used to establish a pool of PC12 cells expressing hSV2A under stable antibiotic selection.
# hSV2B = biological target: T3, hSV2B (Homo sapiens, UniProt Q7L1I2); assay: [3H]ucb 30889 binding to hSV2B expressed in COS-7 cells; conditions: transient COS-7 system
# T3 construct: expressed in transfected cells; host or cells: COS-7 cells, transient expression
# hSV2C = biological target: T4, hSV2C (Homo sapiens, UniProt Q496J9); assay: [3H]ucb 30889 binding to hSV2C expressed in COS-7 cells; conditions: transient COS-7 system
# T4 construct: expressed in transfected cells; host or cells: COS-7 cells, transient expression
# T4 sequence (Q496J9 1-727): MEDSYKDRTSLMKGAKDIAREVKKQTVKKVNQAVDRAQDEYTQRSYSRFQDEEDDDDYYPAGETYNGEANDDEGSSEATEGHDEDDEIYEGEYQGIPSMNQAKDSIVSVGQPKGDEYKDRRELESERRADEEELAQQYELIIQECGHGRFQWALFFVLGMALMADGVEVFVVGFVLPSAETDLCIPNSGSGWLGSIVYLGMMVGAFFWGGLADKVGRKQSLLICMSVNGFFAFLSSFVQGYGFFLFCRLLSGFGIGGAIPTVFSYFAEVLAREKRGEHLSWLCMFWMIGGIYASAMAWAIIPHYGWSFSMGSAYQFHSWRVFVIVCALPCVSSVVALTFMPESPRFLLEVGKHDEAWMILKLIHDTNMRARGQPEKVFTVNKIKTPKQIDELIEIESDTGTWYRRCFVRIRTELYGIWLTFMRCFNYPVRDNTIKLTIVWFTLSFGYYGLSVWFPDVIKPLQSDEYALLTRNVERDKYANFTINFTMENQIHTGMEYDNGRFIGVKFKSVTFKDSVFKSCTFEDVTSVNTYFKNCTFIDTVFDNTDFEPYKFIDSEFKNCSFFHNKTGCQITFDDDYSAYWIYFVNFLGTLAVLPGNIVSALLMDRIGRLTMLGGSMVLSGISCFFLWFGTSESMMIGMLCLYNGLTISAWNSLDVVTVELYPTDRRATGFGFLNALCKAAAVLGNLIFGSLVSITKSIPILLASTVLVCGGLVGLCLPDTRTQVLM
# PC12bs cells (LBS) = assay: Intact cell [3H]ucb 30889 binding in PC12bs cells; set-up: species or system rat; conditions: identical conditions
# Protocol: In a binding experiment, specific binding was measured of [^3H]ucb 30889 to COS-7 cells that have either been transfected with SV2A-12.2, or as controls, a β-gal expressing vector, or cells that have not been transfected (FIG. 13). […] The cells were incubated at 4° C. for 2 hours, and then washed rapidly with ice-cold PBS. The cells were lysed on the plate, transferred to scintillation vials with scintillation fluid and counted for ^3H decay emission. […] In identical intact cell binding experiments using PC12bs cells, known to express the LBS, a 1.5 to 2-fold difference in CPM between the ‘hot’ and ‘hot+cold’ samples is typically seen, as compared to the 5-fold difference seen here.
# SV2A in native membrane = biological target: T5, SV2A in native membrane (Rattus norvegicus, UniProt Q02563); assay: Scatchard analysis of [3H]ucb 30889 binding, native rat brain membrane
# T5 construct: from tissue
# soluble SV2A = biological target: T6, soluble SV2A (Rattus norvegicus, UniProt Q02563); assay: [3H]ucb 30889 binding to n-dodecyl-β-D-maltoside solubilized SV2A; conditions: soluble protein in n-dodecyl-β-D-maltoside; read-out: KD (Scatchard analysis)
# T6 construct: from tissue; host or cells: supernatant of detergent-solubilised rat brain membranes
# Protocol: The rat brain membranes were diluted in a solubilization buffer (Tris-HCl 20 mM pH 7.4, 0.25 M sucrose, protease inhibitors Complete Roche) containing n-dodecyl-β-D-maltoside 15 mM and incubated for two hours at 4° C. Subsequently, the solution was centrifuged at 4° C. for one hour at 100,000 g. The soluble SV2A was found in the supernatant as detected by western blot using anti-SV2A antibodies (FIG. 21A). The supernatants were incubated with [^3H]ucb 30889 as described. […] Thus, the binding properties of the soluble SV2A are similar to the membrane-bound native form indicative that the soluble protein maintains its native structural conformation in n-dodecyl-β-D-maltoside.
# [6] = rat brain cortex, 4° C., fast component (25 to 50% of the sites)
# [7] = rat brain cortex, 4° C., slow component
# T2 sequence (Q7L0J3 whole entry): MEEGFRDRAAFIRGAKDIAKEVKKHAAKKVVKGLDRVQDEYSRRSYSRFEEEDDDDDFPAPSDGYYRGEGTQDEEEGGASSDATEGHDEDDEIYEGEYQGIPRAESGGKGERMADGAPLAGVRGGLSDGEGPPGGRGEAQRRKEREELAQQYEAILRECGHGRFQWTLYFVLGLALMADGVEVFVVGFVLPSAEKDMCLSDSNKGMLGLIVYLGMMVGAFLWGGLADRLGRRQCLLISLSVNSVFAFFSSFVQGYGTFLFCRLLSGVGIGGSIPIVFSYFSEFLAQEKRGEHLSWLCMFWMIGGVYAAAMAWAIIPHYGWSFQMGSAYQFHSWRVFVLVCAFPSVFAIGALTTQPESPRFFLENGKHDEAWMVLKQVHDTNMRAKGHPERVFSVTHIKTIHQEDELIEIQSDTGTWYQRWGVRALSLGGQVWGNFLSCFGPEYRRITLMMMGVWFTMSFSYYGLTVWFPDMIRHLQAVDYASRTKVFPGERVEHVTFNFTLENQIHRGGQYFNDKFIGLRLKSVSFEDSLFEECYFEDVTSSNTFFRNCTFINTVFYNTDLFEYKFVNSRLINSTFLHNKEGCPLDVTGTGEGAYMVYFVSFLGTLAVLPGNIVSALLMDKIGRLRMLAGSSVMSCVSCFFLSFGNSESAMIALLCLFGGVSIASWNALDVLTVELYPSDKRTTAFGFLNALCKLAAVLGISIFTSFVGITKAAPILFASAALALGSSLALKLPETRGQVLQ
# T1 sequence (Q02563 whole entry): as the sequence (Q7L0J3 whole entry) above, with D53E, S62A, T71A, E144D, A154T, G440S, S482A, I572V, M634L counted along it
# T3 sequence (Q7L1I2 whole entry): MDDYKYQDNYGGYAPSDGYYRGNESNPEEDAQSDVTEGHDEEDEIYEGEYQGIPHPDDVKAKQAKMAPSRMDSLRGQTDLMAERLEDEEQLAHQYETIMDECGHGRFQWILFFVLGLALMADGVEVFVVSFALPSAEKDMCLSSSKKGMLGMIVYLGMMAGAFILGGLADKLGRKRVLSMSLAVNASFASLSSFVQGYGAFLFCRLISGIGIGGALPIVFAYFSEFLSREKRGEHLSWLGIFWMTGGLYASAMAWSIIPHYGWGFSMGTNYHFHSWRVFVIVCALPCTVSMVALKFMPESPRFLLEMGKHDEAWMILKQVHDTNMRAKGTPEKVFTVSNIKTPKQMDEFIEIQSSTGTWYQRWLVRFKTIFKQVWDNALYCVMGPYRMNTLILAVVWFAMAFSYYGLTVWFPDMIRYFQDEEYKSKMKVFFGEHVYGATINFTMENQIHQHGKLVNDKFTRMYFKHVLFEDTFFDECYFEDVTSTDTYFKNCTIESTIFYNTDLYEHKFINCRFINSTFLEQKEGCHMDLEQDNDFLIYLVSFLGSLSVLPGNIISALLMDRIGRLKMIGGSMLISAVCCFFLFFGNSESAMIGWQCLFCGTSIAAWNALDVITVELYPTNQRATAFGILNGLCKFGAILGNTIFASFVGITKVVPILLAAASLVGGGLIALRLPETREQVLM
# T6 sequence (Q02563 whole entry): as the sequence (Q7L0J3 whole entry) above, with D53E, S62A, T71A, E144D, A154T, G440S, S482A, I572V, M634L counted along it
# T5 sequence (Q02563 whole entry): as the sequence (Q7L0J3 whole entry) above, with D53E, S62A, T71A, E144D, A154T, G440S, S482A, I572V, M634L counted along it
Molecule,displacement of LEV binding [1],competition with [3H]ucb 30889 for binding to SV2A (hSV2A),other results
COc1ccc(C(=O)N2CCCC2=O)cc1 [aniracetam],displaced LEV binding,,
CCC1(C)CC(=O)NC(=O)C1 [bemegride],competed with LEV,,
NC(=O)N1c2ccccc2C=Cc2ccccc21 [carbamazepine],do not displace LEV binding,"None of the AEDs at concentrations up to 100 μM, competed",
O=C1CN=C(c2ccccc2Cl)c2cc([N+](=O)[O-])ccc2N1 [clonazepam],do not displace LEV binding,,
CCC1(C)CC(=O)NC1=O (stereo not drawn) [ethosuximide],competed with LEV,"None of the AEDs at concentrations up to 100 μM, competed",
NC(=O)OCC(COC(N)=O)c1ccccc1 [felbamate],do not displace LEV binding,"None of the AEDs at concentrations up to 100 μM, competed",
NCC1(CC(=O)O)CCCCC1 [gabapentin],do not displace LEV binding,"None of the AEDs at concentrations up to 100 μM, competed",
"CC[C@@H](C(N)=O)N1CCCC1=O [levetiracetam, (S)-α-ethyl-2-oxo-1-pyrrolidine acetamide]",,,affinity for the binding site ([1]; listed as LEV): modest affinity; affinity for the binding site ([1]; listed as [^3H]LEV): only micromolar affinity; suppression of seizures in the audiogenic-susceptible mouse (audiogenic seizures): unexpected potent ability; control of refractory partial seizures in adults [2]: both effective and well tolerated
CCCC(C)C1(CC)C(=O)NC(=O)NC1=O (stereo not drawn) [pentobarbital],competed with LEV,,
C1CCc2nnnn2CC1 [pentylenetetrazole],competed with LEV,,
O=C1NC(=O)C(c2ccccc2)(c2ccccc2)N1 [phenytoin],do not displace LEV binding,"None of the AEDs at concentrations up to 100 μM, competed",
Cc1ccsc1C(=CCCN1CCC[C@@H](C(=O)O)C1)c1sccc1C [tiagabine],do not displace LEV binding,"None of the AEDs at concentrations up to 100 μM, competed",
"CC[C@@H](C(N)=O)N1CC(c2cccc(N=[N+]=[N-])c2)CC1=O (stereo partly drawn) [ucb 30889, (2S)-2-[4-(3-azidophenyl)-2-oxopyrrolidin-1-yl]butanamide]",,,"half-time for association, fast component [3, 6]: 3 ± 2 min; half-time for dissociation, fast component [3, 6]: 4 ± 1 min; half-time for association, slow component [3, 7]: 47 ± 13 min; half-time for dissociation, slow component [3, 7]: 61 ± 15 min; Bmax (saturation binding) ([3]; rat brain membranes, substance used as radioligand): 5054±704 fmol/mg protein; specific binding in peripheral tissues [4]: could not be detected; Bmax [5]: 0.7 pmol/mg protein; Kd [5]: 59 nM; Bmax (Mouse cortical neurons): 1.4 pmol/mg protein; Kd (Mouse cortical neurons): 34 nM; Bmax (PC12): 1.4 pmol/mg; Kd (PC12): 40 nM; binding above background (COS-7): no binding above background; difference in CPM between 'hot' and 'hot+cold' samples (hSV2A; COS-7 transfected with SV2A-12.2, 1 nM radioligand ± 50 μM cold Levetiracetam, 4° C., 2 hours): 5 fold; binding above background (hSV2B): no binding above background; binding above background (hSV2C): no binding above background; difference in CPM between 'hot' and 'hot+cold' samples (PC12bs cells (LBS)): 1.5 to 2 fold; Kd (SV2A in native membrane): 30 nM; Kd (soluble SV2A): 82 nM"
CC[C@@H](C(N)=O)N1CCCC1=O [ucb L060],,,"affinity to hSV2A compared with LEV (hSV2A; displacement of [3H]ucb 30889, COS-7): significantly less affinity"
CCCC(CCC)C(=O)O [valproate],do not displace LEV binding,"None of the AEDs at concentrations up to 100 μM, competed",
C=CC(N)CCC(=O)O (stereo not drawn) [vigabatrin],do not displace LEV binding,"None of the AEDs at concentrations up to 100 μM, competed",
NS(=O)(=O)Cc1noc2ccccc12 [zonisamide],do not displace LEV binding,"None of the AEDs at concentrations up to 100 μM, competed",
picrotoxin,do not displace LEV binding,,
